From patent publication US4780281A, “Method for assay of peroxidase enzyme or reducing substrate activity” (Wayne State University, priority 1985, dated 1988)

substrate: Oc1ccccc1; test: Steady-state kinetic assay (PPA production, SPE/HPLC); assay type: biochemical, horseradish; details: other: 2.5 nM HRP, 100 microM PPHP, pH 5.5, 4 minutes
Method: The incubations were terminated at 2, 4, and 8 minutes by pouring the incubations onto SPE columns as described in Methods. […] The data points are the average of triplicates. […] All buffers contained 0.2 mM Tween-20. Incubations were stopped at 4 minutes by pouring onto SPE columns as described in Methods. Each data point is the average of triplicates. […] Incubations were stopped at 4 minutes by pouring on SPE columns as described in Methods. PPA concentrations were converted into velocities by dividing by the incubation time and assuming linear steady-state velocities over the first 8 minutes (see FIG. 3). Five replicates of each phenol concentration were assayed. Km and Vmax were determined by linear regression analysis upon the non-averaged data points.
We designed the assays with 4 minute termination times converting either the concentration of PPHP or PPA into velocities.

Molecule	Km
HRP (Armoracia rusticana) (protein, purchased Sigma Chemical Corporation Type VI) QLTPTFYDNSCPNVSNIVRDTIVNELRSDPRIAASILRLHFHDCFVNGCDASILLDNTTSFRTEKDAFGNANSARGFPVIDRMKAAVESACPRTVSCADLLTIAAQQSVTLAGGPSWRVPLGRRDSLQAFLDLANANLPAPFFTLPQLKDSFRNVGLNRSSDLVALSGGHTFGKNQCRFIMDRLYNFSNTGLPDPTLNTTYLQTLRGLCPLNGNLSALVDFDLRTPTIFDNKYYVNLEEQKGLIQSDQELFSSPNATDTIPLVRSFANSTQTFFNAFVEAMDRMGNITPLTGTQGQIRLNCRVVNSNS	252 µM

molecular target: T1, Prostaglandin H Synthase (Ovis aries, UniProt P05979); test: Reducing substrate efficiency for PPHP reduction, conditions as for Table 1; assay type: biochemical; details: not given
T1 sequence (P05979 25-600): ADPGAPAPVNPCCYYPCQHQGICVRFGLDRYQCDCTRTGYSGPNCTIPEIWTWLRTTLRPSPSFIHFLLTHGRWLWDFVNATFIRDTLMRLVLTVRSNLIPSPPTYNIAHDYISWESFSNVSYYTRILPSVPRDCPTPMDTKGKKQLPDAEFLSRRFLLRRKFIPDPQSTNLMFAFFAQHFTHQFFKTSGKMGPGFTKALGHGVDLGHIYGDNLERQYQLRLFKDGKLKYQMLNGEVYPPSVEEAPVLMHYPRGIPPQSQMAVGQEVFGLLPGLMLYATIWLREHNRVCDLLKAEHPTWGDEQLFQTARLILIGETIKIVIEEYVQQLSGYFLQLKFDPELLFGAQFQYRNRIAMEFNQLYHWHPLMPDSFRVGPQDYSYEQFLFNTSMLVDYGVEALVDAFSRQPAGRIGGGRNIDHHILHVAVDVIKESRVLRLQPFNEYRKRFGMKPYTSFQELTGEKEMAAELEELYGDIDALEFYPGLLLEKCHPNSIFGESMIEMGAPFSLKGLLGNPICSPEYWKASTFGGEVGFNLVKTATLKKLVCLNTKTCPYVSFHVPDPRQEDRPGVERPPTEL

Molecule	reducing substrate for PPHP reduction by prostaglandin H synthase
c1ccc2c(c1)cc1ccc3cccc4ccc2c1c34 [benzo[a]yrene]	not reducing substrates
OC1C=Cc2c(cc3ccc4cccc5ccc2c3c45)C1O (centres unmarked) [7,8-dihydroxy-7,8-dihydrobenzo[a]pyrene]	not reducing substrates
c1ccc(-c2oc(-c3ccccc3)c3ccccc23)cc1 [DPBF, 1,3-diphenylisobenzofuran]	not reducing substrates

same assay, conditions: Prostaglandin H synthase, under the conditions for Table 1

Molecule	Index of Efficiency of Reducing Substrates
CSc1ccc(/C=C2/C(C)=C(CC(=O)O)c3cc(F)ccc32)cc1 [Sulindac Sulfide]	.96
CCCCC1C(=O)N(c2ccccc2)N(c2ccccc2)C1=O [Phenylbutazone]	.23
CSc1ccccc1 [Methylphenyl Sulfide]	.50
CC(C)Cc1ccc(C(C)C(=O)O)cc1 (centres unmarked) [Ibuprofen]	.12
Cc1ccc(Cl)c(Nc2ccccc2C(=O)O)c1Cl [Meclofenamate]	.35
O=C(O)Cc1ccccc1Nc1c(Cl)cccc1Cl [Diclofenac]	.50
CCCCC1C(=O)N(c2ccccc2)N(c2ccc(O)cc2)C1=O (centres unmarked) [Oxyphenylbutazone]	.71
CNC[C@H](O)c1ccc(O)c(O)c1 [Epinephrin, d,1-epinephrine]	.92
CC(C)(C)c1cc(I)c(O)c(CN)c1 [MK-447]	.72
CC1=NN(CCOc2ccc3ccccc3c2)C(=O)C1 [Nafazatrom]	.80
CCCCC1C(=O)NN(c2ccccc2)C1=O (centres unmarked) [Monophenylbutazone]	.23
CC(=O)Oc1ccccc1C(=O)O [Aspirin]	.04
CC(C(=O)O)c1ccc(-c2ccccc2)c(F)c1 (centres unmarked) [Flurbiprofen]	.12
COc1ccc2c(c1)c(C(C)C(=O)O)c(C)n2Cc1ccc(SC)cc1 (centres unmarked) [MK-410]	.26
O=C(O)c1ccccc1Nc1cccc(C(F)(F)F)c1 [Flufenamate]	.68
Cc1cc(NC(=O)C2=C(O)c3ccccc3S(=O)(=O)N2C)no1 [Isoxicam]	.25
Cc1c(CC(=O)O)c2cc(O)ccc2n1C(=O)c1ccc(Cl)cc1 [5-Hydroxy-indomethacin]	.34
O=C(O)c1ccccc1O [Salicylic Acid]	.06

molecular target: T2, Horseradish peroxidase (HRP) (Armoracia rusticana, UniProt P00433); test: Reducing substrate specificity assay (HRP-catalysed reduction of PPHP to PPA, HPLC); assay type: biochemical; details: 60 nM HRP, 200 microM reducing substrate, 100 microM PPHP, 0.1 M potassium citrate pH 5.5, 0.2 mM Tween-20, 25° C., 6 minutes, triplicate
T2 construct: purchased Sigma Chemical Corporation Type VI
T2 sequence (P00433 31-338 limits assumed): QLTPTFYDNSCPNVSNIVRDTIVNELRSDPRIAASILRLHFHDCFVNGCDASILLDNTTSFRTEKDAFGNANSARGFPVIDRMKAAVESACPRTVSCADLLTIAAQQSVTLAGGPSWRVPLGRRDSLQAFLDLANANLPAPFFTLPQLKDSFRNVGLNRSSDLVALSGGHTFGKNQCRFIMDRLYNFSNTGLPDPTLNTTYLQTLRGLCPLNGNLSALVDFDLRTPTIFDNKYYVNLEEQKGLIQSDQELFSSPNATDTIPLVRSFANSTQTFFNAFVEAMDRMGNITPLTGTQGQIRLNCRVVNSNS
Method: Incubations were performed in triplicate with a 25° C. shaker bath in 16×150 mm disposable glass test tubes. 60 nM HRP was incubated at 25° C. in 0.1 M potassium citrate buffer, […] containing 0.2 mM Tween 20, with 100 microM PPHP and 200 microM potential reducing substrate. The index value is defined as, Index=concentration PPA/(concentration PPA+concentration PPHP). Most reducing substrates were prepared daily as 8 mM stocks in either water, methanol, or methanol:water (1:1 v/v). DPBF was dissolved in acetone. Uric acid was dissolved in DMSO. Epinephrine required titration with dilute hydrochloric acid prior to dissolution in methanol. Indoleacetic acid, tryptophan, cysteine, and methionine were titrated with dilute potassium hydroxide prior to dissolution in methanol:water (1:1 v/v).
For the data in Table 1 hereinafter, reducing substrates (50 microliters of 8 mM stocks--see Table 1 for preparation) were transferred into 1.9 ml of 0.1 M potassium citrate buffer, pH 5.5, containing 0.2 mM Tween-20 and allowed to thermally equilibrate for 10 minutes. HRP (24 microl of a 5 microM stock) was added to each trial and preincubated for three minutes prior to the addition of PPHP (25 microl of 8 mM stock in methanol). Incubations were stopped at 6 minutes by pouring mixtures onto Baker SPE System columns (3 ml octyldecylsilyl, from J. T. Baker & Co.). The columns were prepared prior to use by passing 3×3 ml aliquots of water through the columns with the Baker SPE vacuum system. At the stop time, an individual trial was poured onto the column and aspirated to near dryness. Each individual trial was set aside until the reminder of the trials were treated in the same manner. After all incubation trials were partitioned onto the SPE columns, each individual incubation tube was washed with 2 ml of 0.2 mM Tween 20 in distilled water and poured onto the corresponding SPE column. This Tween 20/water wash was aspirated to near dryness with vacuum. Analytes were eluted into 12×76 mm disposable glass test tubes with 2×1 ml aliquots of methanol (HPLC grade, Fisher Scientific Co.). The sample collection rack for the Baker 10 SPE System was modified to accommodate these 12 mm diameter tubes. The SPE columns were aspirated dry at this point and discarded. An internal chromatographic standard of p-nitrobenzyl alcohol (25 microl of 8 mM stock solution in methanol) was added to each methanol eluent, mixed by vortexing, and then clarified by filtration through a 0.45 micron nylon Swinney type filter (Rainin Instrument Corp.). The filtered eluents were used directly for chromatographic analysis.
The Initial incubation conditions were 0.1 M potassium citrate buffer, pH 5.5, with 0.2 mM Tween 20, 200 microM reducing substrate, 60 nM HRP and […] PPHP (structure 1).
Quantitation was determined by adding an internal standard (p-nitrobenzyl alcohol: annotated as I.S. on chromatograms) and ratioing peak areas. Chromatograms are 40 microliters injections onto a 5 micron Zorbax octylsilyl reverse-phase column (DuPont Instrument Corp.) with an isocratic elution mobile of 56% v/v methanol in water at 2 ml per min. U.V. monitoring was with a fixed 254 nm detector (Varian 5000, Varian Instrument Corp.). Vertical numbers are associated with peak retention times in minutes (the integrator used was a Vista 402 System, Varian Instruments).
Analyte concentrations were calculated by an internal standard method of calculation. This required individual incubation chromatograms to be compared to a calibration chromatogram generated by chromatographing a 40 microliter sample aliquot of a solution of PPHP as described under calculations.

Molecule	Index = concentration PPA/(concentration PPA+concentration PPHP)
O=C1O[C@H]([C@@H](O)CO)C(O)=C1O [Ascorbic Acid, 1-ascorbic acid]	0.50 ± 0.00
NC(=O)C1=CN([C@@H]2O[C@H](COP(=O)(O)OP(=O)(O)OC[C@H]3O[C@@H](n4cnc5c(N)ncnc54)[C@H](O)[C@@H]3O)[C@@H](O)[C@H]2O)C=CC1 [NADH, reduced nicotinamide adenine dinucleotide]	0.05 ± 0.00
O=C(O)CCCCC1CCSS1 (racemic) [Lipoic Acid, d,1-thiotic acid]	0.06 ± 0.01
O=c1[nH]c(=O)c2[nH]c(=O)[nH]c2[nH]1 [Uric Acid, uric acid]	0.96 ± 0.00
O=C(O)Cc1c[nH]c2ccccc12 [Indoleacetic Acid, indole-3-acetic acid]	0.14 ± 0.01
NC(=O)C1=CN([C@@H]2O[C@H](COP(=O)(O)OP(=O)(O)OC[C@H]3O[C@@H](n4cnc5c(N)ncnc54)[C@H](OP(=O)(O)O)[C@@H]3O)[C@@H](O)[C@H]2O)C=CC1 [NADPH, reduced nicotinamide adenine dinucleotide phosphate]	0.06 ± 0.01
CNC[C@H](O)c1ccc(O)c(O)c1 [Epinephrin, d,1-epinephrine]	0.39 ± 0.01
N[C@@H](CS)C(=O)O [Cysteine, 1-cysteine]	0.06 ± 0.01
CCN(CC)C(=S)S [Diethyldithiocarbamate, diethyldithiocarbamic acid]	0.72 ± 0.02
CSCC[C@H](N)C(=O)O [Methionine, d,1-methionine]	0.05 ± 0.01
Oc1ccc(O)cc1 [Hydroquinone, hydroquinone]	0.97 ± 0.01
[I-].[K+] [Iodide, potassium iodide]	0.97 ± 0.02
c1ccc(-c2oc(-c3ccccc3)c3ccccc23)cc1 [DPBF, 1,3-diphenylisobenzofuran]	0.06 ± 0.01
N[C@@H](CCC(=O)N[C@@H](CS)C(=O)NCC(=O)O)C(=O)O [Glutathione, reduced glutathione]	0.07 ± 0.01
COc1ccccc1O [Guaniacol, guaiacol]	0.97 ± 0.01
Nc1ccccc1 [Aniline, aniline]	0.97 ± 0.01
Cc1cc(C(C)(C)C)c(O)c(C(C)(C)C)c1 [BHT, butylated hydroxytoluene]	0.19 ± 0.03
COc1ccc(O)c(C(C)(C)C)c1 [BHA, butylated hydroxyanisole]	0.56 ± 0.01
N[C@@H](Cc1c[nH]c2ccccc12)C(=O)O [Tryptophan, 1-tryptophan]	0.13 ± 0.04

same assay, conditions: 200 microM reducing substrate, 60 nM HRP, pH 5.5

Molecule	reducing substrate quality for HRP (FIG. 1)
COc1ccc(O)c(C(C)(C)C)c1 [BHA, butylated hydroxyanisole]	moderate
N[C@@H](Cc1c[nH]c2ccccc12)C(=O)O [Tryptophan, 1-tryptophan]	poor

substrate: OOCCC/C=C/c1ccccc1; test: Spectrophotometric assay of Chance & Maehly for guaiacol oxidation; assay type: biochemical, horseradish; details: other: estimated
Text: Apparent Km values for reducing substrates and enzymatic turnover numbers are readily determined by the steady-state kinetic assay.

Molecule	Km
HRP (Armoracia rusticana) (protein, purchased Sigma Chemical Corporation Type VI) QLTPTFYDNSCPNVSNIVRDTIVNELRSDPRIAASILRLHFHDCFVNGCDASILLDNTTSFRTEKDAFGNANSARGFPVIDRMKAAVESACPRTVSCADLLTIAAQQSVTLAGGPSWRVPLGRRDSLQAFLDLANANLPAPFFTLPQLKDSFRNVGLNRSSDLVALSGGHTFGKNQCRFIMDRLYNFSNTGLPDPTLNTTYLQTLRGLCPLNGNLSALVDFDLRTPTIFDNKYYVNLEEQKGLIQSDQELFSSPNATDTIPLVRSFANSTQTFFNAFVEAMDRMGNITPLTGTQGQIRLNCRVVNSNS	18 µM
